Assay results taken from patent US10570180B2, “Anti-bacterial agents and their use in therapy” (priority 2015, dated 2020).
≈ marks a conversion by molar mass, not a printed value. Read-outs that look alike come from different tables or passages of the source. Ends that are not written are not given here.

Assays:
[1] = tested on: Staphylococcus aureus MRSA 1040s; experiment: microbe, parasite or virus in culture; type: cell-based
Description: (§1) ATX-101 was dissolved in Mueller-Hinton broth to 1.25 times of the desired assay concentration. Antibiotics were dissolved in Mueller-Hinton broth and Mueller-Hinton broth with ATX-101 at a concentration of 1.25 times the highest desired assay concentrations. Antibiotics were pharmaceutical grade purchased from Sigma-Aldrich.
(§2) Two-fold serial dilutions of antibiotics were made in Mueller-Hinton with different concentrations of ATX-101, and the solutions were placed in four parallel wells is Nunc 384-well micro plates (30 μl per well in Nunc 242757 microplates). A group of 8 wells with no addition of antibiotics for each ATX-101 concentration was included on each micro plate as a growth reference.
(§3) At the day of analysis, overnight TSB cultures inoculated from freeze stocks (6 ml in 50 ml tube tilted to 45-degrees angle, 200 rpm, 2.5 cm amplitude, 37° C.) were diluted in TSB until the OD800 was 0.10, and further diluted 1:40 in Mueller-Hinton broth. Each well in the 384-well assay plates was inoculated with 7.5 μl of the diluted culture, giving the same dilution of the culture in the assay cultures. The microplates were placed in plastic bags and incubated without shaking at 37° C. The optical density at 600 nm in the microwells was measured after approximately 19 hours of incubation, and the relative growth yield was calculated based on the growth in the reference groups. The MIC value was set to the highest concentration giving less than 30% growth in all 4 parallel wells within the sample groups. The microplates were further incubated for 6 hours, and optical density in the cultures was measured once more for confirmation of the estimated MIC-values.
as §1, with “The APIM peptide was” for “ATX-101 was”, “with APIM” for “with ATX-101”
as §2, with “APIM,” for “ATX-101,”, “in” for “is”, “APIM” for “ATX-101”, “as” for “as a”
as §3, with “inoculated” for “inoculated from”, “OD600” for “OD800”, “culture.” for “culture, giving the same dilution of the culture in the assay cultures.”, “yield in each well” for “yield”
In view of the anti-bacterial effect of ATX-101 on strains of MRSA, the MIC for a variety of APIM variants was determined using Staphylococcus aureus MRSA 1040s. […] A cell penetrating peptide (SEQ ID NO: 337) present in all of the APIM peptides, was used as a negative control.
Next, the effect of APIM peptides on the MIC of antibiotics was determined using Staphylococcus aureus MRSA 1040s.
(§4) The MICS for various APIM peptides were determined for various bacteria, as described above.

[2] = biological target: β-clamp protein from E. coli (Escherichia coli, UniProt P0A988); experiment: Microscale thermophoresis (MST); type: binding; details: no data could be obtained
Sequence of β-clamp protein from E. coli (P0A988 whole entry): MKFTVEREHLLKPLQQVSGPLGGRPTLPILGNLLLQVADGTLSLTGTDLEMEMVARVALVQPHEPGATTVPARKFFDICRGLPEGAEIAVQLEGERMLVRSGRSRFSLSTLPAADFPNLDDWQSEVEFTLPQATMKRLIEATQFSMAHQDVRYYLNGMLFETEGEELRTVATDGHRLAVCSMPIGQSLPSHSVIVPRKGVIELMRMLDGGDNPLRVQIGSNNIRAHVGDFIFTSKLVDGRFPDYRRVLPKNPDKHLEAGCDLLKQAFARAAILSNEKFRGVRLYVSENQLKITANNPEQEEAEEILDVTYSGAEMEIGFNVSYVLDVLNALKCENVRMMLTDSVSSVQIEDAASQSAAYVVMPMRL
Description: Microscale thermophoresis (MST) was used to determine the dissociation constant for various APIM containing peptides.
The β-clamp protein from E. coli was labeled with a fluorescent molecule. Concentration of PCNA was kept constant, whereas dilutions of each APIM containing peptide were prepared (1:1). In a mix of protein and peptide, the signal was recorded in all capillaries with varying concentrations of the unlabeled peptide, and any change of thermophoretic properties was observed as a change in fluorescence intensity.

E. coli BL21 (ripl) = experiment: Overexpression of APIM peptides in E. coli, growth; type: cell-based; details: induction with 1 mM IPTG, no cell-penetrating peptide; FIG. 9, 10
Excerpt: In order to verify further that the anti-microbial effect of the APIM peptides arise from the APIM sequence, peptides containing only the APIM sequence (i.e. without a cell-penetrating peptide) were over-expressed in E. coli using the expression vector pET28. The APIM peptide was expressed alone or as part of a fusion protein with EYFP. Expression of EYFP alone was used as a control.
The expression vectors containing the respective peptides were transfected into the bacterial strain E. coli BL21 (ripl). Single colonies, 4-6 of each strain, were inoculated in […] LB media (+Km/Clm) in 96 wells plates, and incubated at 37° C. Overnight cultures were diluted 1:100 and grown for 1 h before induction with 1 mM IPTG (initiating peptide expression). OD was measured every hour.
In order to verify that the extended APIM peptides have an anti-bacterial effect, peptides containing only the “extended” APIM sequence (i.e. without a cell-penetrating peptide) were over-expressed in E. coli using the expression vector pET28, using the method described in Example 7. […] The bacterial strain without a plasmid was used as a further control.

MRSA 1040 (u50) biofilm = experiment: MRSA biofilm under flow (IBIDI flow-system); type: cell-based, Staphylococcus aureus
Description: The IBIDI flow-system coupled with EVOS Auto Imaging system was optimized and used for testing the effect of ATX-101 on MRSA biofilm under flow. MRSA 1040 (u50) was used as model organism; it normally produces a dense biofilm in the growth channel during 36 hours of flow. The effect of 3 different concentrations of ATX-101 was tested (7 μg/ml, 3.5 μg/ml and 0.8 μg/ml). The flow system was programmed with share stress similar to those found in capillary networks (3.49 dyne/cm^2), 2% Luria Bertani (LB) was used for dilution and flow medium.

[3] = tested on: Staphylococcus aureus NCTC 6571; type: cell-based; details: for MIC: NCTC 6571
Description: as §1, §2, §3, §4

E. faecium TO-12 = type: cell-based
Description: as §1, §2, §3, §4

P. aeruginosa = type: cell-based
Description: as §1, §2, §3, §4

E. faecium CTC 492 = experiment: MIC assay of antibiotics with ATX-101; type: cell-based, Enterococcus faecium
Description: (§5) The minimum inhibitory concentration (MIC) of ATX-101 (SEQ ID NO: 1289) was determined for various gram negative and gram positive bacteria. The bacteria, Pseudomonas aeruginosa ATCC 15692, Acinetobacter baumenni ATCC 19600, Escherichia coli ATCC 25922, Pseudomonas aeruginosa TO-5A (clinical isolate), Enterococous faecium CCUG 37832, Enterococcus faecium CTC 492, Micrococcus luteus ATCC 9341 and Escherichie coli NCIMB 12210 were grown in the presence of various concentrations of ATX-101 and/or antibiotic.
as §1, §2, §3
as §1, with “The APIM peptide was” for “ATX-101 was”, “with APIM” for “with ATX-101”
as §2, with “APIM,” for “ATX-101,”, “in” for “is”, “APIM” for “ATX-101”, “as” for “as a”
as §3, with “inoculated” for “inoculated from”, “OD600” for “OD800”, “culture.” for “culture, giving the same dilution of the culture in the assay cultures.”, “yield in each well” for “yield”

[4] = tested on: gram positive bacteria (Enterococcus faecium CCUG 37832, Enterococcus faecium CTC 492, Micrococcus luteus ATCC 9341); type: cell-based
Description: as §5, §1, §2, §3

[5] = tested on: gram negative bacteria (Pseudomonas aeruginosa ATCC 15692, Acinetobacter baumenni ATCC 19606, Escherichia coli ATCC 25922, Pseudomonas aeruginosa TO-5A); type: cell-based
Description: as §5, §1, §2, §3

[6] = tested on: E. faecium CCUG 37832 (TO-3); type: cell-based, Enterococcus faecium
Description: as §1, §2, §3
Accordingly, concentrations of 8 μg/ml and 16 μg/ml of ATX-101 were combined with various antibiotics selected from; 2,4-Diamin, S. methizol, S. methoxa, S. dimetho, Surfaceta, Trimeth, Flumeq, Levoflox, Pruliflox, Metronid and Nitrofur.
as §4

[7] = tested on: Staphylococcus aureus MRSA 1096; type: cell-based
Description: as §1, §2
At the day of analysis, overnight TSB cultures inoculated from freeze stocks (6 ml in 50 ml tube tilted to 45-degrees angle, 200 rpm, 2.5 cm amplitude, 37° C.) were diluted in TSB until the OD800 was 0.10, and further diluted 1:40 in Mueller-Hinton broth. […] The optical density at 600 nm in the microwells was measured after approximately 19 hours of incubation, and the relative growth yield was calculated based on the growth in the reference groups. […] The microplates were further incubated for 6 hours, and optical density in the cultures was measured once more for confirmation of the estimated MIC-values.

E. coli NCIMB 12210 = experiment: MIC assay of antibiotics with ATX-101; type: cell-based, Escherichia coli; details: FIG. 4
Description: as §5, §1, §2, §3
as §1, with “The APIM peptide was” for “ATX-101 was”, “with APIM” for “with ATX-101”
as §2, with “APIM,” for “ATX-101,”, “in” for “is”, “APIM” for “ATX-101”, “as” for “as a”
as §3, with “inoculated” for “inoculated from”, “OD600” for “OD800”, “culture.” for “culture, giving the same dilution of the culture in the assay cultures.”, “yield in each well” for “yield”

bacteria = experiment: MIC of other APIM peptides on bacteria; type: cell-based; details: Example 2
A. baumanii = type: cell-based
Description: as §1, §2, §3, §4

[8] = concentration of APIM peptide 15 μg/ml, MRSA 1040s
[9] = starting concentration of ATX-101 150 μg/ml

## N=C(N)NCCC[C@H](NC(=O)[C@H](CCCNC(=N)N)NC(=O)[C@H](CCCNC(=N)N)NC(=O)[C@H](CCCNC(=N)N)NC(=O)[C@H](CCCNC(=N)N)NC(=O)[C@H](CCCNC(=N)N)NC(=O)[C@H](CCCNC(=N)N)NC(=O)[C@H](CCCNC(=N)N)NC(=O)[C@H](CCCNC(=N)N)NC(=O)[C@H](CCCNC(=N)N)NC(=O)[C@@H](N)CCCNC(=N)N)C(=O)O [R11, RRRRRRRRRRR, reference compound]
[1]; 1040s
  MIC: 118 µg/mL
[2]
  interaction with the β-clamp protein: does not interact with the β-clamp protein

## RWLVK (APIM) [SEQ ID NO: 1290]
E. coli BL21 (ripl)
  bacterial growth on overexpression of APIM peptide (OD): inhibits bacterial growth

## RWLVP (APIM variant) [SEQ ID NO: 1292]
E. coli BL21 (ripl)
  bacterial growth on overexpression of APIM peptide (OD): particularly effective

## RWLTK (APIM variant) [SEQ ID NO: 1293]
E. coli BL21 (ripl)
  bacterial growth on overexpression of APIM peptide (OD): particularly effective

## MDRWLVKWKKKRKIRRRRRRRRRRR [ATX-101]
[1]; 1040s
  MIC: 7.5 µM
[1]; Table 4, MRSA 1040s
  MIC of ATX-101: 37.5 µg/mL
[1]; Table 5, peptide alone, MRSA 1040s
  MIC: 32 µg/mL
[1]; Table 6, alone, MRSA 1040s
  MIC: 16 µg/mL
[1]; concentration of APIM peptide 7.5 μg/ml, MRSA 1040s
  MIC of Erythromycin (Relative values): 1000
[1]; [8]
  MIC of Erythromycin (Relative values): 125
[1]; [9]
  Factor of inhibition: 0.25
MRSA 1040 (u50) biofilm; 0.8 μg/ml ATX-101, 36 hours, FIG. 15
  biofilm formation: biofilm formation is inhibited
MRSA 1040 (u50) biofilm; 7 μg/ml ATX-101, 36 hours, FIG. 14
  biofilm formation: biofilm formation is inhibited
MRSA 1040 (u50) biofilm; 7 μg/ml, 3.5 μg/ml and 0.8 μg/ml
  effect on MRSA biofilm under flow: Good effect
[3]
  MIC: 37.9 µM
[3]; Staphylococcus aureus NCTC 6571
  MIC of ATX-101: 150 µg/mL
[3]; [9]
  Factor of inhibition: 1
E. faecium TO-12
  MIC: 16.8 µM
P. aeruginosa
  MIC: 37.9 µM
E. faecium CTC 492; 6.5 μg/ml or 13 μg/ml ATX-101, about 0.5-2 μg/ml novobiocin
  effect on inhibition of bacterial growth by novobiocin: enhances the inhibition of bacterial growth
E. faecium CTC 492; 20 μg/ml ATX-101, with or without ampicillin or novobiocin
  growth at higher concentration of ATX-101: no growth was observed
[4]
  MIC: about 1 μg/ml
[4]; FIG. 2, gram positive bacteria
  growth inhibited by ATX-101 from (concentration): about 1 μM
[5]
  MIC: 5 to 10 µg/mL
[5]; FIG. 1, gram negative bacteria
  growth inhibited by ATX-101 from (concentration): about 1 μM
[6]; ATX-101 alone, text b504
  MIC: 7.5 µg/mL
[6]; Table 9, E. faecium TO-3
  MIC: 7.5 µM
[7]; MRSA 1096
  MIC of ATX-101: 9.375 µg/mL
[7]; [9]
  Factor of inhibition: 0.0625
E. coli NCIMB 12210
  reduction of the MIC for novobiocin: 16 fold

## MDRWSVKWKKKRKIRRRRRRRRRRR [SEQ ID NO: 1298]
[1]; [8]
  MIC of Erythromycin (Relative values): 100
[3]
  MIC: 37.9 µM
E. faecium TO-12
  MIC: 37.9 µM
[6]; CCUG 37832
  MIC: 7.5 µM
bacteria
  MIC compared with ATX-101: lower MICs than ATX-101

## RFSLK (APIM variant) [SEQ ID NO: 1291]
E. coli BL21 (ripl)
  bacterial growth on overexpression of APIM peptide (OD): particularly effective

## CC[C@H](C)[C@H](NC(=O)[C@H](CCCCN)NC(=O)[C@H](CCCNC(=N)N)NC(=O)[C@H](CCCCN)NC(=O)[C@H](CCCCN)NC(=O)[C@H](CCCCN)NC(=O)[C@H](Cc1c[nH]c2ccccc12)NC(=O)[C@@H]1CCCN1C(=O)[C@@H](NC(=O)[C@H](CC(C)C)NC(=O)[C@H](Cc1c[nH]c2ccccc12)NC(=O)[C@H](CCCNC(=N)N)NC(=O)[C@H](CC(=O)O)NC(=O)[C@@H](N)CCSC)C(C)C)C(=O)N[C@@H](CCCNC(=N)N)C(=O)N[C@@H](CCCNC(=N)N)C(=O)N[C@@H](CCCNC(=N)N)C(=O)N[C@@H](CCCNC(=N)N)C(=O)N[C@@H](CCCNC(=N)N)C(=O)N[C@@H](CCCNC(=N)N)C(=O)N[C@@H](CCCNC(=N)N)C(=O)N[C@@H](CCCNC(=N)N)C(=O)N[C@@H](CCCNC(=N)N)C(=O)N[C@@H](CCCNC(=N)N)C(=O)N[C@@H](CCCNC(=N)N)C(=O)O [SEQ ID NO: 1303]
[1]; [8]
  MIC of Erythromycin (Relative values): 100
[3]
  MIC: 37.9 µM (≈ 137 µg/mL)
A. baumanii
  MIC: 25.3 µM (≈ 91.1 µg/mL)
E. faecium TO-12
  MIC: 25.3 µM (≈ 91.1 µg/mL)
[6]; CCUG 37832
  MIC: 7.5 µM

## MDRWAVKWKKKRKIRRRRRRRRRRR [SEQ ID NO: 1299]
[1]; [8]
  MIC of Erythromycin (Relative values): 200
[3]
  MIC: 37.9 µM
E. faecium TO-12
  MIC: 25.3 µM
[6]; CCUG 37832
  MIC: 7.5 µM
bacteria
  MIC compared with ATX-101: lower MICs than ATX-101
